Measured values published in patent US7388028B2, “Methoxypolyethylene glycol thioester chelate and uses thereof” (priority 2006, dated 2008).

Assays:
[1] = system: NMDA retinal damage model; assay: NMDA retinal damage model, electroretinogram A and B waves; format: in vivo, rats
Description: NMDA retinal damage model: Changes in electroretinogram (ERG) A and B waves have been used as indicators of RGC damage. To examine RGC neuroprotection, 2 ul intravitreal injections of 10 mM NMDA, sufficient to change ERG A and B-waves within 2 weeks, were challenged with co-administered intravitreal (2 mM) or topical 100 mM MPDTE, MPSEDE and amifostine in normal rats unilaterally. For topical administration, rats were pretreated for 5 days prior and 3 days post-NMDA administration with the agents at a frequency of 3 times per day with 20 μl agent. Scotopic ERG changes were measured in normal rats. Rats were dark adapted for at least 4 hrs. Eyes were dilated with atropine after which proparacaine and methylcellulose gel were applied topically. Custom made AgCl electrodes (64-1317, Warner Instruments, Hamden, Conn.) were placed on the apex of the cornea. Stimuli consisted of 10-microsec flashes of unattenuated white light generated by Ganzfield bowl photo stimulator (Grass Instruments, PS22, Quincy, Mass.). Data from each eye was recorded separately with a driver amplifier (Grass Instruments, Model 7DAF Polygraph, Quincy, Mass.). Data was acquired digitally via DASYLab (Bedford, N.H.). The contralateral normal eye served as an age matched negative control, e.g. response in a normal, undamaged eye. Differences in amplitude of the A-wave and B-waves between the treated eye and the contralateral eye and between treatment groups were calculated.

[2] = system: rat surgical glaucoma model (intraocular pressure); assay: Topical application of MP compounds, IOP measurements on rat surgical glaucoma model; format: in vivo, rats
Description: Rat ocular hypertensive model: Ocular hypertension was induced in 9 male SpragueDawley rats, weighing between 400 to 500 grams. Under general anesthesia with acepromazine maleate (12 mg/Kg) and ketamine (80 mg/Kg), IP, and topical proparacaine (0.5%), dissection of the conjunctiva was made with fine cuts. To reduce the stimulus for revascularization or neovascularization, dissection of the right eye was limited to the area immediately surrounding the vortex veins. Three of four vortex veins were exposed and ligated using 9.0 nylon sutures. Criterion for inclusion into the study was an intraocular pressure (IOP) increase of 5 mm Hg or more when compared to […] baseline IOP. Within 6 weeks, the IOP of all the operated eyes increased at least 5 mm Hg compared to baseline. National Institutes of Health Guidelines and Association for Research in Vision and Opthalmology statement for the Use and Care of Animals were followed in this study.
Intraocular pressure (IOP) Measurements: Prior to initiation of treatment, baseline IOP was obtained in glaucoma rat models. IOP was measured via a specially modified Goldmann applanation tonometer (HAAG-STREIT, Bern, Switzerland) under sedation. Measurements are averages of two consecutive readings and were made at the same time of day and by the same observers.
Topical application of MP compounds for IOP measurements on rat surgical glaucoma model: Rats were treated topically with 20 μl of MP compounds (0.3-100 mM; n=3-6) on the operated eyes. The MP compounds were compared to 10 or 87 mM topical amifostine, a free radical scavenger. MP esterified chelators were diethylenetriaminepentaacetic acid (MPDTE) and MPSEDE.

[3] = Intravitreal agent (2 mM) co-administered with intravitreal 10 mM NMDA
[4] = Topical agent (100 mM, 3 times per day, 5 days prior and 3 days post-NMDA), intravitreal 10 mM NMDA

Row | Compound | A wave [1, 3] [% Baseline] | B wave [1, 3] [% Baseline] | A wave [1, 4] [% Baseline] | B wave [1, 4] [% Baseline] | IOP reduction ([2]; administered alone or together, FIG. 10, not as great as with MPDTE) | IOP reduction ([2]; single topical dose of 10-100 mM, operated eye, FIG. 5-7) | reduction of NMDA damage ([1]; both intravitreal and topical administration (Table 1)) | reduction of NMDA damage ([1]; co-administration with NMDA, at the dose tested) | IOP reduction ([2]; topical 10 mM or 87 mM)
1 | CN[C@H](CC(=O)O)C(=O)O [NMDA, N-methyl-D-aspartate, reference compound] | 51.2 | 68.4 | 51.2 | 68.4 | – | – | – | – | –
2 | polyethylene glycol monomethyl ether [MP] | – | – | – | – | reduction in IOP | – | – | – | –
3 | methoxypolyethlene glycol thioester of ethylenediaminetetraacetic acid methyl triester [MPSEDE] | 76.2 | 69.6 | 95.9 | 93.7 | – | significantly reduced IOP | significantly reduced NMDA damage | trend to reduce NMDA damage, but this was not significant | –
4 | NCCCNCCSP(=O)(O)O [amifostine, S-2-[3-aminopropylamino] ethylphosphorothioate] | – | – | – | – | – | – | – | – | No reduction in IOP
